Source: US8609836B2, “4-aryl-2-anilino-pyrimidines” (Janssen Pharmaceutica NV, priority 2008, dated 2013)

What was measured:
GSK3β (h) = GSK3β (h) (Homo sapiens, UniProt P49841); experiment: GSK-3β human kinase inhibition, SPA; type: biochemical; details: read-out: GSK3b pIC50 (converted)
Procedure, shortened: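 Radiometric: 33P-labelled peptide captured on streptavidin SPA beads after EDTA stop and imaged on Leadseeker. Reaction ran 1 h at RT, 1 μM cold ATP with 2 nM [γ-33P]ATP, 1 μM biotin-peptide substrate, human GSK3β 1 μg/ml, pH 7.4 Tris buffer.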

PLK2 (h) = PLK2 (h) (Homo sapiens, UniProt Q9NYY3); experiment: PLK2 human kinase inhibition, SPA; type: biochemical; details: read-out: PLK2 pIC50 (converted)
Procedure, shortened: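 33P incorporation into a biotinylated peptide (2 μM) was captured on streptavidin PVT beads and imaged on Leadseeker. Enzyme at 30 μg/ml, ATP 0.1 μM with 2 nM [γ-33P]ATP, Hepes pH 8.0 with MnCl2 and DTT. Incubation was 20 min at room temperature.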

CDK4/CyclinD1 (h) = CDK4/CyclinD1 (h) (Homo sapiens, UniProt P11802); experiment: CDK4/CyclinD1 human kinase inhibition, SPA with GST-pRb substrate; type: biochemical; details: read-out: CDK4 pIC50 (converted)
Procedure, shortened: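 Scintillation proximity format: after EDTA/Triton stop containing glutathione SPA beads, 33P incorporation was counted. The reaction ran 60 min at room temperature in Hepes pH 7.5 with NaF, MgCl2, DTT, using 2.5 μg/ml human CDK4/CyclinD1, 40 μg/ml GST-pRb substrate and 2 nM [γ-33P]ATP.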

U87-MG = experiment: Cellular proliferation assay (Alamar blue), U87-MG; type: cell-based; details: Homo sapiens, U-87 MG; 10% FCS; 72 hours with compound; Alamar blue 6 h; read-out: U87-MG (cellular proliferation assay, Table 4) (converted)
Procedure, shortened: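 Alamar blue fluorescence (544/590 nm) measured viable cells after 72 h compound exposure; dye incubation 4 h (HCT-116), 6 h (U87-MG) or 24 h (A2780, MDA-MB-231). Cells pre-seeded 24 h, grown in 10% FCS, 37° C, 5% CO2; effect expressed relative to control cells.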

Sequence of PLK2 (h) (Q9NYY3 whole entry): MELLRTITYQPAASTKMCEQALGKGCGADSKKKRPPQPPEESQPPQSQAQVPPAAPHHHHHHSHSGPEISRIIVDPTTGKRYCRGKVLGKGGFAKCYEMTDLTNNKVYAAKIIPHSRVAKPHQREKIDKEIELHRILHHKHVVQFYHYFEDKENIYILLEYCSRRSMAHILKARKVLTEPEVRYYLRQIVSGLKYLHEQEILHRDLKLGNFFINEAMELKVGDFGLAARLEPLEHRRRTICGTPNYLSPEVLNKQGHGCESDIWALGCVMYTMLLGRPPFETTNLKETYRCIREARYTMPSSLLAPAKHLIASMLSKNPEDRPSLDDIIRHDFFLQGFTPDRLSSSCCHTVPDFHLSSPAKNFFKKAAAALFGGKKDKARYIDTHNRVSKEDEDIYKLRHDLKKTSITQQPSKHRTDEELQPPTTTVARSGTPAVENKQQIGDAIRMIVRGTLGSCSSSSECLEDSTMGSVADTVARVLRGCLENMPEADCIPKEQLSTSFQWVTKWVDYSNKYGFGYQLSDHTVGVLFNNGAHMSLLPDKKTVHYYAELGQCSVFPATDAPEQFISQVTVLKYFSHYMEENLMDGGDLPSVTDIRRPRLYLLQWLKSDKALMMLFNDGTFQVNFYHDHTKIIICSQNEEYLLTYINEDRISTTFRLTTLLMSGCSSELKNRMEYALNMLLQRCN
Sequence of CDK4/CyclinD1 (h) (P11802 whole entry): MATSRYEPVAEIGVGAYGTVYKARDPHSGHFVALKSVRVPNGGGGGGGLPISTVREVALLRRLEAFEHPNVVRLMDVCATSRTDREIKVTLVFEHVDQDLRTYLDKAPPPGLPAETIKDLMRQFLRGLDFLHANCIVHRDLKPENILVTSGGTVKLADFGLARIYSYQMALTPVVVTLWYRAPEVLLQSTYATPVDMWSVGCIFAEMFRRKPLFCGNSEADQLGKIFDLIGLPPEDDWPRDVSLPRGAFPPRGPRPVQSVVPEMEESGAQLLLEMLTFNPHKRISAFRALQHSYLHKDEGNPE
Sequence of CDK4/CyclinD1 (h) (P24385 whole entry partner): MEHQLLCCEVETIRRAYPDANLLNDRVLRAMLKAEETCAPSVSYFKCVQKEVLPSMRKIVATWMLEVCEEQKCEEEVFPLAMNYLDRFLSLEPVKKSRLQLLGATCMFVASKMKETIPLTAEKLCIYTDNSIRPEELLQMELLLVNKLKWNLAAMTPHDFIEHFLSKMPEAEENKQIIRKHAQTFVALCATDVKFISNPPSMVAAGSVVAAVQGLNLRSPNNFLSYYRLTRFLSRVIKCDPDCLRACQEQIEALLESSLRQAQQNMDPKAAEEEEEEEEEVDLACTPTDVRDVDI
Sequence of GSK3β (h) (P49841 whole entry): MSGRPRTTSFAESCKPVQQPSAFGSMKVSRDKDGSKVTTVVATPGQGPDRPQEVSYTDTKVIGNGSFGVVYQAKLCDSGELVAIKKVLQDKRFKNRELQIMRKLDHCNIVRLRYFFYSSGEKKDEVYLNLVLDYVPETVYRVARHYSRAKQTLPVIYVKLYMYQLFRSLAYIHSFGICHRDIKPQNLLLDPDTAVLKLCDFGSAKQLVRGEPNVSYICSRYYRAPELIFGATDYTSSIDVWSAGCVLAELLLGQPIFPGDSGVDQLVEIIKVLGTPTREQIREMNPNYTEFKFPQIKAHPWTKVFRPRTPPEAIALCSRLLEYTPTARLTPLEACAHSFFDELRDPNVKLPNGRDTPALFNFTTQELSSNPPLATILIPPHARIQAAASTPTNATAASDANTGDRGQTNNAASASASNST

| Compound | melting point [°C] | IC50 (GSK3β (h)) [µM] | IC50 (PLK2 (h)) [µM] | IC50 (CDK4/CyclinD1 (h)) [µM] | IC50 (U87-MG) [µM] |
| --- | --- | --- | --- | --- | --- |
| O=C1NCCCc2cc(ccn2)-c2ccnc(n2)Nc2cccc(c2)CN[C@H]1CO [Compound 19] | 253.6 to 254.9 | 0.0372 | > 10 | 1.26 | 1.07 |
| O=C1CN2CCN(CC2)Cc2cccc(c2)Nc2nccc(n2)-c2ccnc(c2)CCCN1 [Compound 21] | 243.2 to 244.3 | 0.0166 | > 10 | 1.29 | 2.82 |
| O=C1NCCCOc2cccc(c2)-c2ccnc(n2)Nc2ccc(N3CCOCC3)c(c2)CN2CCC[C@@H]12 [Compound 96] | – | 2.82 | > 10 | > 10 | 4.17 |
| O=C1CN2CCN(CC2)Cc2cc(ccc2N2CCOCC2)Nc2nccc(n2)-c2cccc(c2)OCCCN1 [Compound 103] | – | 1.55 | > 10 | > 10 | > 10 |
| CN1CCCNC(=O)[C@H](CO)NCc2cccc(c2)Nc2nccc(n2)-c2ccc(cc2)C1 [Compound 113] | – | > 10 | > 10 | > 10 | > 10 |
| O=C1NCCNCc2ccc(cc2)-c2ccnc(n2)Nc2ccc(N3CCOCC3)c(c2)CN[C@H]1CO [Compound 115] | – | > 10 | > 10 | > 10 | > 10 |
| COc1ccc2cc1CNCCNC(=O)CN1CCN(CC1)Cc1cc(ccc1N1CCOCC1)Nc1nccc-2n1 [Compound 126] | – | > 10 | > 10 | > 10 | > 10 |
| COc1ccc2cc1CN(C)CCCNC(=O)CN1CCN(CC1)Cc1cc(cc(NC(C)C)c1)Nc1nccc-2n1 [Compound 130] | – | 5.37 | > 10 | > 10 | > 10 |
| CN1CCNC(=O)CN2CCN(CC2)Cc2cc(cc(N3CCOCC3)c2)Nc2nccc(n2)-c2ccc(cc2)C1 [Compound 135] | – | 4.37 | > 10 | > 10 | 9.77 |
| COc1ccc2cc1CN(C)CCCNC(=O)CN1CCN(CC1)Cc1cc(cc(N3CCOCC3)c1)Nc1nccc-2n1 [Compound 141] | – | > 10 | > 10 | > 10 | 5.89 |
| COc1ccc2cc1CN(C)CCNC(=O)CN1CCN(CC1)Cc1cc(cc(NC(C)C)c1)Nc1nccc-2n1 [Compound 142] | – | > 10 | > 10 | > 10 | 5.62 |
| COc1ccc2cc1CN(C)CCCNC(=O)CN1CCN(CC1)Cc1cc(Br)cc(c1)Nc1nccc-2n1 [Compound 144] | – | > 10 | > 10 | > 10 | 9.33 |
| COc1ccc2cc1CN(C)CCNC(=O)CN1CCN(CC1)Cc1cc(cc(N3CCOCC3)c1)Nc1nccc-2n1 [Compound 145] | – | > 10 | > 10 | > 10 | > 10 |
| COc1ccc2cc1CN(C)CCCNC(=O)CN1CCN(CC1)Cc1cccc(c1)Nc1nccc-2n1 [Compound 146] | – | > 10 | > 10 | > 10 | > 10 |
| COc1ccc2cc1CN(C)CCNC(=O)CN1CCN(CC1)Cc1cccc(c1)Nc1nccc-2n1 [Compound 147] | – | > 10 | > 10 | > 10 | > 10 |
| CC(C)Nc1cc2cc(c1)Nc1nccc(n1)-c1ccc(cc1)CN(C)CCNC(=O)[C@@H]1CCCN1C2 [Compound 153] | – | 3.24 | > 10 | > 10 | 5.75 |
| CN1CCNC(=O)[C@@H]2CCCN2Cc2cc(Br)cc(c2)Nc2nccc(n2)-c2ccc(cc2)C1 [Compound 155] | – | 2.34 | > 10 | > 10 | > 10 |
| O=C1NCCNc2cc(ccn2)-c2ccnc(n2)Nc2ccc(N3CCOCC3)c(c2)CN2CCCC12 (stereo not shown) [Compound 161] | – | 0.182 | > 10 | > 10 | > 10 |
| COc1ccc2cc1CN(C)CCCNC(=O)[C@@H]1CCCN1Cc1cc(cc(NC(C)C)c1)Nc1nccc-2n1 [Compound 164] | – | > 10 | > 10 | > 10 | 2.09 |
| O=C1NCCCNCc2ccc(cc2)-c2ccnc(n2)Nc2ccc(N3CCOCC3)c(c2)CN2C[C@H](O)C[C@@H]12 [Compound 169] | – | > 10 | > 10 | > 10 | > 10 |
| CN1CCCNC(=O)[C@@H]2CCCN2Cc2cccc(c2)Nc2nccc(n2)-c2ccc(cc2)C1 [Compound 173] | – | > 10 | > 10 | > 10 | > 10 |
| COc1ccc2cc1CN(C)CCNC(=O)[C@@H]1CCCN1Cc1cccc(c1)Nc1nccc-2n1 [Compound 175] | – | > 10 | > 10 | > 10 | > 10 |
| COc1ccc2cc1CNCCNC(=O)[C@@H]1C[C@@H](O)CN1Cc1cc(ccc1N1CCOCC1)Nc1nccc-2n1 [Compound 177] | – | > 10 | > 10 | > 10 | > 10 |
| COc1ccc2cc1CNCCNC(=O)[C@@H]1CCCN1Cc1cc(ccc1N1CCOCC1)Nc1nccc-2n1 [Compound 178] | – | > 10 | > 10 | > 10 | 8.91 |
| COc1ccc2cc1CN(C)CCCNC(=O)[C@@H]1CCCN1Cc1cc(cc(N3CCOCC3)c1)Nc1nccc-2n1 [Compound 179] | – | > 10 | > 10 | > 10 | > 10 |
| COc1ccc2cc1CN(C)CCCNC(=O)[C@@H]1CCCN1Cc1cccc(c1)Nc1nccc-2n1 [Compound 180] | – | > 10 | > 10 | > 10 | > 10 |
